From patent US5912351A, “Anhydrous 1,4-Dihydropyridines and salts thereof” (Recordati, S.A. Chemical and Pharmaceutical Company, priority 1995, dated 1999) come the findings set out here.

Series [1] in a line: High temperature stress stability at 100° C., HPLC assay. The format is physicochemical. The note with it: in the light. As to the method:
The two samples, lercanidipine hydrochloride hemihydrate, and anhydrous lercanidipine hydrochloride were heated, in the light, at 100° C. for 48 hours. The samples were tested at the following times; 0 hours, 24 hours, and 48 hours. The purity of the lercanidipine was checked by HPLC analysis under the following conditions:
Column: m-Bondapak C-18 (Waters), particle size […], 300×3.9 mm i.d.

A short description of series [2]: Water content at 75% relative humidity (Karl-Fisher). The format is physicochemical. Here is the method:
Samples of anhydrous lercanidipine hydrochloride and lercanidipine hydrochloride hemihydrate were placed in open polyethylene bags in flasks and heated, in the dark, at 60° C. and 75% relative humidity. The samples were checked for hygroscopicity by determination of the water content using the Karl-Fisher method. The samples were tested at 8 and 15 days.
Two additional samples of the anhydrous lercanidipine hydrochloride and lercanidipine hydrochloride hemihydrate were placed in open polyethylene bags in flasks and heated, in the dark, at 40° C. and 75% relative humidity. The samples were tested as described above at 8 and 15 days.

In series [3] the test system is mouse peritoneal macrophages. Kind of series: Cholesteryl ester hydrolysis in macrophages. The format is cell-based. The note with it: AcLDL 50 μg/ml + S-58035 1 μg/ml. Here is the method: These experiments were performed by incubating cells preloaded with [^3 H]cholesterol in the presence of the specific ACAT inhibitor S-58035. The blockage of intracellular reesterification of cholesterol allowed the assessment of the ability of cells to hydrolyze the accumulated cholesterol esters.
For studies involving the quantitation of the hydrolysis of cholesteryl esters in cytoplasmic lipid droplets, cells, prepared according to the procedure in Example 6A, are loaded with cholesteryl esters by exposure for 24 hours to the medium containing 50 μg/ml acetyl LDL. [1,2-^3 H]Cholesterol is included in all loading media at a concentration of 0.5 μCi/ml. After 24 hours loading period, during which time the radiolabeled cholesterol is incorporated and esterified, the cell monolayers are washed and incubated an additional 24 hours in medium containing 0.1% bovine serum albumin to allow the intracellular pools of labelled cholesterol to equilibrate to the same specific activity. To quantitate cholesteryl ester hydrolysis, the loaded cells are incubated for up to 24 hours in Dulbecco's minimum essential medium containing, 0.1% bovine serum albumin, lercanidipines, and the compound S-58035, an inhibitor of acyl-coenzyme A-cholesterol acyltransferase. The inhibition of acyl-coenzyme A-cholesterol acyltransferase prevents the reesterification of any free cholesterol generated by cholesteryl ester hydrolysis and thus allows assessment of the activity of the hydrolase. The hydrolysis of the cholesteryl esters is quantified by determining the decrease of radiolabeled cholesteryl esters (E. H. Harrison et al., J. Lipid. Res. 31: […] with phosphate buffered saline and extracted with hexane:isopropanol (3:2 v/v). The media were extracted with chloroform:methanol (2:1 v/v). After solvent removal, free and esterified cholesterol were separated by TLC (isooctane:diethyl ether:acetic acid, 75:25:2 by volume). Cholesterol mass or radioactivity of the spots were determined by an enzymatic method (Boehringer Mannheim, Germany) (F. Bernini et al., Atherosclerosis 104: 19 (1993)) or by liquid scintillation counting (Lipoluma Lumac, Landgraf, The Netherlands) respectively.

Counter-ions that a name gives are not always drawn.

Usually fraction remaining stands for the share of the starting amount still present when the sample was taken. As for `COC(=O)C1=C(C)NC(C)=C(C(=O)OC(C)(C)CN(C)CCC(c2ccccc2)c2ccccc2)C1c1cccc([N+](=O)[O-])c1` (stereo not shown) [Anhydrous, METHYL 1,1-N-TRIMETHYL-N-(3,3-DIPHENYLPROPYL)-2-AMINOETHYL 1,4-DIHYDRO-2,6-DIMETHYL-4-(3-NITROPHENYL) PYRIDINE-3,5-DICARBOXYLATE (LERCANIDIPINE) HYDROCHLORIDE], the “Assay % by HPLC” value in series [1] (0 hr, HYDROCHLORIDE) came out at 99.74%. Further, in series [1] (solid, 24 hrs), the fraction remaining at 24 h was 99.4%. Besides, the fraction remaining at 48 h in series [1] (solid, 48 hrs) was determined as 99%. Moreover, the Water Content is 0.28% in series [2] (40° C., 0 days, HYDROCHLORIDE); 0.3% in series [2] (40° C., 8 days, HYDROCHLORIDE); 0.32% in series [2] (40° C., 15 days, HYDROCHLORIDE); 0.28% in series [2] (60° C., 0 days, HYDROCHLORIDE); 0.85% in series [2] (60° C., 8 days, HYDROCHLORIDE); 0.77% in series [2] (60° C., 15 days, HYDROCHLORIDE).

Take `CCCCCCCCCC[Si](C)(C)CCC(=O)NC(Cc1ccc(C)cc1)c1ccccc1` (stereo not shown) [Example S-58035, reference compound]: the “% of cholesteryl ester” value in series [3] was 15 ± 0.5%.

On to `COC(=O)C1=C(C)NC(C)=C(C(=O)OC(C)(C)CN(C)CCC(c2ccccc2)c2ccccc2)C1c1cccc([N+](=O)[O-])c1` (stereo not shown) [Hemihydrate, Lercanidipine hydrochloride hemihydrate, reference compound], for which the “Assay % by HPLC” value was determined as 99.85% in series [1] (0 hr); 92.35% in series [1] (24 hrs, hydrochloride hemihydrate, 1440 min); 90.96% in series [1] (48 hrs, hydrochloride hemihydrate, 2880 min). The Water Content came to 1.42% in series [2] (40° C., 0 days); 3.14% in series [2] (40° C., 8 days); 3.05% in series [2] (40° C., 15 days); 1.42% in series [2] (60° C., 0 days); 4% in series [2] (60° C., 8 days); 4.04% in series [2] (60° C., 15 days).
